Values after ≈ are worked out from the molar mass of the structure shown. One block for each molecule: values may come before it.
Key:
Endoplasmin [1] = molecular target: T1, Endoplasmin (Canis lupus familiaris, UniProt P41148); assay: Inhibition of GST-tagged dog GRP94 (69 to 337 residues) expressed in Escherichia coli BL21 (DE3) measured after 4 hrs by fluorescent polarization assay
[2] = Permeability of compound at pH 7.4; type: ADME; conditions: not told, read-out: permeability
[3] = Lipophilicity, logD of compound at pH 7.4; type: physicochemical; conditions: buffer
[4] = Aqueous solubility of compound; type: physicochemical; conditions: buffer
[5] = molecular target: T2, Heat shock protein HSP 90-alpha (Homo sapiens, UniProt P07900); assay: Binding affinity to Hsp90alpha (unknown origin) by fluorescent polarization assay
[6] = Cmax in Sprague-Dawley rat at 40 mg/kg, po measured after 24 hrs by LC-MS/MS analysis; type: ADME, organism-based; design: time 24 hrs, dose 40 mg/kg, route po; conditions: in vivo
Mus musculus [7] = assay: Anti-ulcerative colitis activity against DSS-induced Ulcerative colitis C57BL/6 mouse model assessed as disease activity index at 50 mg/kg, ip measured for 8 days (reference value: 8.37+/-0.3); type: functional; conditions: time 8 day
[8] = Metabolic stability in human microsomes assessed as clearance in presence of NADPH at 10 uM measured after 120 mins by LC-MS/MS analysis; type: ADME, Microsome; conditions: 2 h
[9] = Cmax in Sprague-Dawley rat at 10 mg/kg, iv measured after 24 hrs by LC-MS/MS analysis; type: ADME, organism-based; design: dose 10 mg/kg, time 24 hrs, route iv; conditions: in vivo
Endoplasmin [10] = molecular target: T1, Endoplasmin; assay: Binding affinity to GST-tagged dog GRP94 (69 to 337 residues) expressed in Escherichia coli BL21 (DE3) assessed as dissociation rate constant at 0.37 to 10 uM measured by BLI assay
[11] = Clearance in Sprague-Dawley rat at 40 mg/kg, po measured after 24 hrs by LC-MS/MS analysis; type: ADME, organism-based; conditions: in vivo
[12] = molecular target: T2, Heat shock protein HSP 90-alpha; assay: Binding affinity to His-tagged human N-terminal HSP90alpha (1 to 236 residues) expressed in Escherichia coli BL21 (DE3) assessed as dissociation rate constant at 1.1 to 30 uM measured by BLI assay
Mus musculus [13] = assay: Toxicity in DSS-induced Ulcerative colitis C57BL/6 mouse model assessed as effect on liver weight index at 10 to 50 mg/kg, ip measured after 8 days; conditions: in vivo, 192 h
[14] = Metabolic stability in mouse microsomes assessed as half life in presence of NADPH at 10 uM measured after 120 mins by LC-MS/MS analysis; type: ADME, Microsome
[15] = Tmax in Sprague-Dawley rat at 40 mg/kg, po measured after 24 hrs by LC-MS/MS analysis; type: ADME, organism-based; conditions: in vivo
[16] = AUC (0 to infinity) in Sprague-Dawley rat at 40 mg/kg, po measured after 24 hrs by LC-MS/MS analysis; type: ADME, organism-based; design: dose 40 mg/kg, time 24 hrs, route po; conditions: in vivo
Mus musculus [17] = assay: Anti-ulcerative colitis activity against DSS-induced Ulcerative colitis C57BL/6 mouse model assessed as disease activity index at 30 mg/kg, ip measured for 8 days (reference value: 8.37+/-0.3); type: functional; conditions: time 8 day
Mus musculus [18] = assay: Anti-ulcerative colitis activity against DSS-induced Ulcerative colitis C57BL/6 mouse model assessed as disease activity index at 10 mg/kg, ip measured for 8 days (reference value: 8.37+/-0.3); type: functional; conditions: time 8 day
[19] = molecular target: T2, Heat shock protein HSP 90-alpha; conditions: dose 1.1-30 µM
Description: Binding affinity to His-tagged human N-terminal HSP90alpha (1 to 236 residues) expressed in Escherichia coli BL21 (DE3) assessed as association constant at 1.1 to 30 uM measured by BLI assay

[20] = Apparent volume of distribution in Sprague-Dawley rat at 40 mg/kg, po measured after 24 hrs by LC-MS/MS analysis; type: ADME, organism-based; conditions: in vivo
[21] = Metabolic stability in human microsomes assessed as half life in presence of NADPH at 10 uM measured after 120 mins by LC-MS/MS analysis; type: ADME, Microsome
[22] = molecular target: Endoplasmin (Canis lupus familiaris) (UniProt P41148); conditions: dose 0.37-10 µM
Description: Binding affinity to GST-tagged dog GRP94 (69 to 337 residues) expressed in Escherichia coli BL21 (DE3) assessed as association constant at 0.37 to 10 uM measured by BLI assay

[23] = Clearance in Sprague-Dawley rat at 10 mg/kg, iv measured after 24 hrs by LC-MS/MS analysis; type: ADME, organism-based; conditions: in vivo
[24] = Metabolic stability in mouse microsomes assessed as clearance in presence of NADPH at 10 uM measured after 120 mins by LC-MS/MS analysis; type: ADME, Microsome; conditions: 2 h
[25] = Half life in Sprague-Dawley rat at 40 mg/kg, po measured after 24 hrs by LC-MS/MS analysis; type: ADME, organism-based; conditions: in vivo
[26] = Apparent volume of distribution in Sprague-Dawley rat at 10 mg/kg, iv measured after 24 hrs by LC-MS/MS analysis; type: ADME, organism-based; conditions: in vivo
[27] = AUC (0 to infinity) in Sprague-Dawley rat at 10 mg/kg, iv measured after 24 hrs by LC-MS/MS analysis; type: ADME, organism-based; design: dose 10 mg/kg, time 24 hrs, route iv; conditions: in vivo
[28] = Tmax in Sprague-Dawley rat at 10 mg/kg, iv measured after 24 hrs by LC-MS/MS analysis; type: ADME, organism-based; conditions: in vivo
[29] = Oral bioavailability in Sprague-Dawley rat at 40 mg/kg measured after 24 hrs by LC-MS/MS analysis; type: ADME, organism-based; conditions: in vivo
Mus musculus [30] = assay: Toxicity in DSS-induced Ulcerative colitis C57BL/6 mouse model assessed as loss of body weight at 10 to 50 mg/kg, ip measured for 9 days; type: organism-based; conditions: in vivo, 216 h, dose 10-50 mg/kg, time 9 day
[31] = Half life in Sprague-Dawley rat at 10 mg/kg, iv measured after 24 hrs by LC-MS/MS analysis; type: ADME, organism-based; conditions: in vivo
Endoplasmin [32] = molecular target: Endoplasmin (Homo sapiens, UniProt P14625); assay: Binding affinity to Grp94 (unknown origin) by fluorescent polarization assay
Chain of Endoplasmin (Homo sapiens, UniProt P14625) (P14625 whole entry): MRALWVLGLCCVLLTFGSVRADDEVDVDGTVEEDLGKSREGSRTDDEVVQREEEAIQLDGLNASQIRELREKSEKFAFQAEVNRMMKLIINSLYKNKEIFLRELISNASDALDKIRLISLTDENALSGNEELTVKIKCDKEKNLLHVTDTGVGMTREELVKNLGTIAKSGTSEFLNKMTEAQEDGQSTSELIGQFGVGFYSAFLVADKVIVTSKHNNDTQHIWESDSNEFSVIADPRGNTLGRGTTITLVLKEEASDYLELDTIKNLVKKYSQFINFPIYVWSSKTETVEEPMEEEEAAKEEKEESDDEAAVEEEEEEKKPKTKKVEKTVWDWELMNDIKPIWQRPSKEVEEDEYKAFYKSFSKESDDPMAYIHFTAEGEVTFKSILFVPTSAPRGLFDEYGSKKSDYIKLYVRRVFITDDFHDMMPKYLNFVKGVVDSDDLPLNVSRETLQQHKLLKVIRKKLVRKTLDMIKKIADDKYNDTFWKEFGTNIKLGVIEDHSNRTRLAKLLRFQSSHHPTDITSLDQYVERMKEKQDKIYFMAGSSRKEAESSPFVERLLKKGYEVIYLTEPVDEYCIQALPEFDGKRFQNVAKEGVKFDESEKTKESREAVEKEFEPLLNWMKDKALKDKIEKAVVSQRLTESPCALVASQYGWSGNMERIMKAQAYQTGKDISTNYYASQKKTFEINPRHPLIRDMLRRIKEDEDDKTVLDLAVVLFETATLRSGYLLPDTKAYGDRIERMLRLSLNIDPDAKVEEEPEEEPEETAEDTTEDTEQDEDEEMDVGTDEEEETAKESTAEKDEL

T1 sequence (P41148 whole entry, the tested form may be a part): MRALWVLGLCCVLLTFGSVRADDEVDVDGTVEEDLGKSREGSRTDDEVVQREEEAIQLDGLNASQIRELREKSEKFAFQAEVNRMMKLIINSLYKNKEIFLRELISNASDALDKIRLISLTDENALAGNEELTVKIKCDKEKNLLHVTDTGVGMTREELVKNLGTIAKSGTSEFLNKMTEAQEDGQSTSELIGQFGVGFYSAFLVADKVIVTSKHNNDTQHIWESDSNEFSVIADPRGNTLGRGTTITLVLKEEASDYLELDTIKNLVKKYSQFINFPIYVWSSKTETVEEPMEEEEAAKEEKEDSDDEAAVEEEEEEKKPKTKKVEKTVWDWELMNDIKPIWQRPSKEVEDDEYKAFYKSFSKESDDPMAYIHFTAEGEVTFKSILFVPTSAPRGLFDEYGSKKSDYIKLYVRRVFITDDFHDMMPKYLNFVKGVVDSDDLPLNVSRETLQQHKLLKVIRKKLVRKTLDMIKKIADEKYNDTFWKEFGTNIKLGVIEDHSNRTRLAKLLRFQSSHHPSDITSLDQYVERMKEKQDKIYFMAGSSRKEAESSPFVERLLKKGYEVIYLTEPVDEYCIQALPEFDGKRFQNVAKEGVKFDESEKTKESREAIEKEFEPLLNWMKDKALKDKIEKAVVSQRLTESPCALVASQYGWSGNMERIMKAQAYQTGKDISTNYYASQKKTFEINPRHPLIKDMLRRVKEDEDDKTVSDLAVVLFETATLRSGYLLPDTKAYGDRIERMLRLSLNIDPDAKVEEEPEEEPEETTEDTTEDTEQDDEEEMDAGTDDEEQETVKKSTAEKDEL
Chain of Endoplasmin (Canis lupus familiaris) (P41148 whole entry): as the sequence (P41148 whole entry, the tested form may be a part) above

Compound: CCCCC#Cc1ccc(NCC2CCOC2)c(C(N)=O)c1 (stereo not drawn)
IC50 (Endoplasmin [1]): 947 nM

Compound: CCCCC#Cc1ccc(NC2CCCN(C(C)=O)C2)c(C(N)=O)c1 (stereo not drawn)
IC50 (Endoplasmin [1]): 2040 nM

Compound: CCCCC#Cc1ccc(NCCOC)c(C(N)=O)c1
IC50 (Endoplasmin [1]): 10900 nM

Compound: CCCCC#Cc1ccc(NCCOCC)c(C(N)=O)c1
IC50 (Endoplasmin [1]): 7540 nM

Compound: CCCCC#Cc1ccc(NCCCOC)c(C(N)=O)c1
IC50 (Endoplasmin [1]): 2060 nM

Compound: CCCCC#Cc1ccc(NCCCOCC)c(C(N)=O)c1
IC50 (Endoplasmin [1]): 3310 nM

Compound: CCCCC#Cc1ccc(NCCNC(C)=O)c(C(N)=O)c1
IC50 (Endoplasmin [1]): 2020 nM

Compound: CCCCC#Cc1ccc(NC2CCOC2)c(C(N)=O)c1 (stereo not drawn)
IC50 (Endoplasmin [1]): 310 nM

Compound: CCCCC#Cc1ccc(NCC2CCN(C(C)=O)CC2)c(C(N)=O)c1
IC50 (Endoplasmin [1]): 4780 nM

Compound: CCCCC#Cc1ccc(NC2CCN(C(C)=O)CC2)c(C(N)=O)c1
Papp [2]: 94.6 ×10⁻⁶ cm/s | logD [3]: 3.24 | solubility [4]: 16 µg/mL (≈ 46.9 µM) | IC50 (Endoplasmin [1]): 203 nM

Compound: CCCCC#Cc1ccc(NC2CCN(C(=O)CN(C)C)CC2)c(C(N)=O)c1
IC50 (Endoplasmin [1]): 1110 nM

Compound: CCCCC#Cc1ccc(NCCCO)c(C(N)=O)c1
IC50 (Endoplasmin [1]): 2770 nM

Compound: CCCCC#Cc1ccc(NCC2CCOCC2)c(C(N)=O)c1
IC50 (Endoplasmin [1]): 393 nM

Compound: CCCCC#Cc1ccc(NC2CCN(C(=O)CN3CCOCC3)CC2)c(C(N)=O)c1
IC50 (Endoplasmin [1]): 1490 nM

Compound: CCOc1ccccc1Cn1ccnc1CCc1c(Cl)c(O)cc(O)c1C(=O)OC
Kd [5]: 8200 nM

Compound: CCCCC#Cc1ccc(NC2CCOCC2)c(C(N)=O)c1
IC50 (Endoplasmin [1]): 234 nM

Compound: CCCCC#Cc1ccc(NCC2CCN(C(=O)C3CC3)CC2)c(C(N)=O)c1
IC50 (Endoplasmin [1]): 2410 nM

Compound: CCCCC#Cc1ccc(NCCO)c(C(N)=O)c1
IC50 (Endoplasmin [1]): 6840 nM

Compound: CCCCC#Cc1ccc(NCC2CCNCC2)c(C(N)=O)c1
IC50 (Endoplasmin [1]): 16600 nM

Compound: CCCCC#Cc1ccc(N[C@H]2CC[C@H](O)CC2)c(C(N)=O)c1
Cmax [6]: 600 ng/mL | Activity_index (Mus musculus [7]): 1.76 | CL [8]: 12.8 µL/min/mg | Cmax [9]: 2410 ng/mL | Papp [2]: 97.9 ×10⁻⁶ cm/s | koff (Endoplasmin [10]): 2.84 10^-2/s | CL [11]: 72.8 mL/min/kg | koff [12]: 1.14 10^-2/s | Activity (Mus musculus [13]): Non-Toxic | half-life at 10 µM [14]: 1.8 h | logD [3]: 3.69 | solubility [4]: 11 µg/mL (≈ 35 µM) | Tmax [15]: 0.38 h | AUC [16]: 0.95 µg/mL/h | IC50 (Endoplasmin [1]): 60 nM | Activity_index (Mus musculus [17]): 2.3 | Activity_index (Mus musculus [18]): 3.04 | Ka [19]: 1.22 10^5/M/s | Vz [20]: 2.81 L/kg | half-life at 10 µM [21]: 5.78 h | Ka [22]: 2.56 10^5/M/s | CL [23]: 111 mL/min/kg | CL [24]: 11 µL/min/mg | t1/2 [25]: 4.69 h | Vz [26]: 1.47 L/kg | AUC [27]: 1.51 µg/mL/h | Tmax [28]: 3 min | bioavailability [29]: 15.7% | Activity (Mus musculus [30]): Non-Toxic | t1/2 [31]: 15.25 h

Compound: CC(C)c1cc(C(=O)N2Cc3ccc(CN4CCN(C)CC4)cc3C2)c(O)cc1O [ONALESPIB]
IC50 (Endoplasmin [1]): 13 nM

Compound: CCCCC#Cc1ccc(NC2CCN(C(=O)CCN3CCOCC3)CC2)c(C(N)=O)c1
IC50 (Endoplasmin [1]): 985 nM

Compound: CC(C)NCCCn1c(Sc2cc(Cl)cc(Cl)c2)nc2c(N)ncnc21
Kd (Endoplasmin [32]): 220 nM | Kd [5]: > 250000 nM

Compound: CCCCC#Cc1ccc(NC2CCCNC2)c(C(N)=O)c1 (stereo not drawn)
IC50 (Endoplasmin [1]): 627 nM

Next, values leading:

IC50 (Endoplasmin [1]): 914 nM
Compound: CC(C)C#Cc1ccc(N[C@H]2CC[C@H](O)CC2)c(C(N)=O)c1

IC50 (Endoplasmin [1]): 519 nM
Compound: CC(C)CCC#Cc1ccc(N[C@H]2CC[C@H](O)CC2)c(C(N)=O)c1

IC50 (Endoplasmin [1]): 210 nM
Compound: NC(=O)c1cc(C#CC2CCCCC2)ccc1N[C@H]1CC[C@H](O)CC1

IC50 (Endoplasmin [1]): 797 nM
Compound: CCCCC#Cc1ccc(NC2CCN(C(=O)CC3CC3)CC2)c(C(N)=O)c1

IC50 (Endoplasmin [1]): 325 nM
Compound: CC(C)(C)C#Cc1ccc(N[C@H]2CC[C@H](O)CC2)c(C(N)=O)c1

IC50 (Endoplasmin [1]): > 100000 nM
Compound: CCN(CC)CC#Cc1ccc(N[C@H]2CC[C@H](O)CC2)c(C(N)=O)c1

IC50 (Endoplasmin [1]): 528 nM
Compound: CCCCC#Cc1ccc(NC2CCN(C(=O)C3CC3)CC2)c(C(N)=O)c1

IC50 (Endoplasmin [1]): 205 nM
Compound: NC(=O)c1cc(C#CCCCCl)ccc1N[C@H]1CC[C@H](O)CC1

IC50 (Endoplasmin [1]): 62600 nM
Compound: CN(C)CC#Cc1ccc(N[C@H]2CC[C@H](O)CC2)c(C(N)=O)c1

IC50 (Endoplasmin [1]): 100 nM
Compound: NC(=O)c1cc(C#CC2CCCC2)ccc1N[C@H]1CC[C@H](O)CC1

IC50 (Endoplasmin [1]): 1610 nM
Compound: CCCCC#Cc1ccc(NC2CCNCC2)c(C(N)=O)c1

IC50 (Endoplasmin [1]): 251 nM
Compound: NC(=O)c1cc(C#CC2CC2)ccc1N[C@H]1CC[C@H](O)CC1

CL [8]: 25.5 µL/min/mg | Papp [2]: 99.2 ×10⁻⁶ cm/s | half-life at 10 µM [14]: 1.04 h | logD [3]: 4.59 | solubility [4]: 3.9 µg/mL (≈ 11.1 µM) | IC50 (Endoplasmin [1]): 20 nM | half-life at 10 µM [21]: 4.28 h | CL [24]: 13.5 µL/min/mg
Compound: CC(C)c1ccc(-c2ccc(N[C@H]3CC[C@H](O)CC3)c(C(N)=O)c2)cc1

IC50 (Endoplasmin [1]): 313 nM
Compound: CC(C)CC#Cc1ccc(N[C@H]2CC[C@H](O)CC2)c(C(N)=O)c1
